Data taken from patent US7605280B2, “Anthraquinone and its derivatives” (Biostatus Limited, priority 1998, dated 2009).
Several values for one entry are separate records, joined by “and”; a condition that tells them apart may be missing. Equal values may be shown once.

Columns and labels:
SUD4 cells = experiment: FACScan (Cytometer C) flow cytometric analysis of DRAQ5-labelled cells; assay type: cell-based, human
Protocol: (§1) HL60 (human promyelocytic-leukaemia cell line) and SUD4 (human B cell lymphoma cell line) were grown as suspension cultures-in-RMPI medium with 10% foetal calf serum, 1 mM glutamine and antibiotics and incubated at 37° C. in an atmosphere of 5% CO2 in air. For flow cytometry experiments, asynchronously growing suspension cultures were diluted to 2.5-4>10^5 cells/ml at 2 h prior to drug treatment. Cell cycle-perturbed populations were obtained by treating SUD4 cells with the drug etoposide (VP-16-213) at 0.25 μM for 18h. Cells were treated with DRAQ5 and FDA as described above. Cell concentrations were determined using a Coulter counter and cell cycle distribution determined using an algorithm for the normal distibution of fluorescence intensity profiles for fluorochrome stained G1 and G2 cells.
Suspension cultures were analysed by flow cytometry without washing. Human blood was obtained using routine venepuncture of a healthy donor and samples manipulated using standard haematological procedures for the isolation of mononuclear blood cells and surface antigen recognition using antibody panels (see Table 1).
Cells were analysed using one of four flow cytometers according to the excitation requirements. • Cytometer A: Single beam high power 647 nm krypton laser excitation: The system was a custom-built cytometer and incorporated an Innova 3000K krypton laser (Coherent Corp., Palo Alto, Calif., USA) tuned to the 647 nm line. Forward light scatter, 90° light scatter and fluorescence emissions were collected for 1×10^4 cells using the 90° light scatter parameter as the master signal. The optical system permitted the analysis of various fluorescence emission wavelengths including: >715 nm (termed low infra-red) and, as reported here >780 nm fluorescence (infra-red ). Forward and 90° light scatter were analysed for the identification of cell debris. Laser power was set at 200 mW and linear amplifiers were used for the fluorescence signals. The analysis optics included a 675 nm cold dichroic mirror, ambient laboratory temperature was approximately 12° C. and the sheath reservoir was maintained at 10° C. Filters were supplied by Melles Griot. Median, mean and mode parameters were calculated for the distribution of fluorescence intensity-values throughout a given cell population. In all experiments, median and mean values produced very similar results. Median values alone are reported since this parameter is less affected by the presence of highly fluorescent cells beyond the upper limit for quantification. • Cytometer B: Dual beam low power 633 nm/high power 488 nm laser excitation: The system was a FACS 440 cell sorter (Becton Dickinson Inc., Cowley, UK) incorporating a Spectra Physics argon ion laser (max 500 mW output), tuned to the 488 nm line (100 mW output), and a secondary Spectra Physics 156 helium-neon laser emitting at 633 nm (emitting <5 mW), with a temporal beam separation of about 30 μsec. Forward light scatter, 90° light scatter and fluorescence emissions were collected for 1×10^4 cells using the forward light scatter parameter as the master signal from the primary 488 nm beam, while side scatter was collected through a 488/10 nm band-pass filter. The analysis optics included: i) a cold dichroic mirror (transmitting >675 nm), ii) fluorescence from fluorescein excited by the 488 nm beam detected at a PMT guarded by a 535/15 nm band-pass filter with no signal delay, and iii) a red-sensitive PMT with an appropriate delay, additionally guarded by a 620 nm long-pass filter, to detect the transmitted beam of DRAQ5-associated fluorescence at wavelengths beyond 675 nm (high-red and extending into the infra red region of the spectrum) Forward and 90° light scatter were analysed to exclude any cell debris. All parameters were acquired at 256 channel resolution with Consort 30 software (Becton Dickinson) and subsequently analysed with WinMDI software (J. Trotter, La Jolla, Calif.). […]

viable HL60 cells = experiment: Flow cytometric analysis of DRAQ5 accumulation (Cytometers A and B); assay type: cell-based, human; conditions: Cytometer B, low power 633 nm, 1 h exposure
Protocol: as §1
Cells were analysed using one of four flow cytometers according to the excitation requirements. • Cytometer A: Single beam high power 647 nm krypton laser excitation: The system was a custom-built cytometer and incorporated an Innova 3000K krypton laser (Coherent Corp., Palo Alto, Calif., USA) tuned to the 647 nm line. Forward light scatter, 90° light scatter and fluorescence emissions were collected for 1×10^4 cells using the 90° light scatter parameter as the master signal. […] Forward and 90° light scatter were analysed for the identification of cell debris. […]

SMILES: CN(C)CCNc1ccc(O)c2c1C(=O)c1c(O)ccc(NCCN(C)C)c1C2=O [DRAQ5]
- DRAQ5 concentration at which staining saturates (SUD4 cells; 5 min at room temperature, SUD4, lymphocytes, monocytes (FIG. 8)): ≥ 10 µM
- increase of mean fluorescence for G2 arrested populations (SUD4 cells; Preparation 1, VP-16 arrested versus asynchronous cells): 1.7 fold
- Mean fluorescence intensity (±sd) of gated population (SUD4 cells; Preparation 1, 20 μM DRAQ5, 120 min, FL3): 645.1 ± 177.7
- Mean fluorescence intensity (±sd) of gated population (SUD4 cells; Preparation 1, cells pretreated 0.25 μM VP-16 × 18 h, 20 μM DRAQ5, 5 min): 891.8 ± 126.4
- Mean fluorescence intensity (±sd) of gated population (SUD4 cells; Preparation 1 viable cultured cells, 20 μM DRAQ5, 5 min, FL3): 499.4 ± 143.3 and 532.4 ± 148.3
- Mean fluorescence intensity (±sd) of gated population (SUD4 cells; Preparation 2, cells pretreated 0.25 μM VP-16, 20 μM DRAQ5, 5 min): 902.7 ± 117.1
- Mean fluorescence intensity (±sd) of gated population (SUD4 cells; Preparation 2 surface antigen analysis, 20 μM DRAQ5, 5 min): 564.3 ± 147.2
- lower end of linear dose-response of 633 nm derived DRAQ5 signal (viable HL60 cells): approximately 2.5 μM
